Where “and” joins values, the source holds several entries; their conditions need not be identical. Equal values may be shown once. ± gives the uncertainty stated by the source.
Experiment: xn = mol fraction of the nth substance listed

Oc1ccccc1Cl + CNc1ccccc1
viscosity [mPa·s], 101 kPa
Conditions | x1 = 0.1013 | x1 = 0.2024 | x1 = 0.3005 | x1 = 0.4032 | x1 = 0.5007 | x1 = 0.6027 | x1 = 0.7 | x1 = 0.7936 | x1 = 0.9042
298 K | 2.395 ± 0.061 | 2.887 ± 0.074 | 3.546 ± 0.091 | 4.142 ± 0.11 | 4.746 ± 0.12 | 4.883 ± 0.12 | 4.922 ± 0.13 | 4.587 ± 0.12 | 3.898 ± 0.1
303 K | 2.112 ± 0.054 | 2.493 ± 0.064 | 2.984 ± 0.076 | 3.445 ± 0.088 | 3.801 ± 0.097 | 3.963 ± 0.1 | 3.966 ± 0.1 | 3.715 ± 0.095 | 3.352 ± 0.086
308 K | 1.84 ± 0.047 | 2.126 ± 0.055 | 2.526 ± 0.065 | 2.863 ± 0.073 | 3.129 ± 0.08 | 3.277 ± 0.084 | 3.305 ± 0.085 | 3.117 ± 0.08 | 2.77 ± 0.071
313 K | 1.622 ± 0.042 | 1.826 ± 0.047 | 2.115 ± 0.054 | 2.42 ± 0.062 | 2.678 ± 0.069 | 2.75 ± 0.07 | 2.793 ± 0.072 | 2.704 ± 0.069 | 2.506 ± 0.064
318 K | 1.443 ± 0.037 | 1.598 ± 0.041 | 1.883 ± 0.048 | 2.075 ± 0.053 | 2.302 ± 0.059 | 2.34 ± 0.06 | 2.42 ± 0.062 | 2.342 ± 0.06 | 2.198 ± 0.056

CCCN + C1CCCCC1
viscosity, 101 kPa
Conditions | x1 = 0.00761 | x1 = 0.01688 | x1 = 0.02821 | x1 = 0.03652 | x1 = 0.04831 | x1 = 0.05697 | x1 = 0.06516 | x1 = 0.07467 | x1 = 0.08588
303.15 K | 0.8113 ± 0.0056 mPa·s | 0.8039 ± 0.0055 mPa·s | 0.7953 ± 0.0055 mPa·s | 0.789 ± 0.0055 mPa·s | 0.7803 ± 0.0054 mPa·s | 0.7736 ± 0.0054 mPa·s | 0.7669 ± 0.0053 mPa·s | 0.7583 ± 0.0053 mPa·s | 0.7506 ± 0.0053 mPa·s
313.15 K | 0.7093 ± 0.005 mPa·s and 0.6999 ± 0.005 mPa·s | 0.6903 ± 0.0049 mPa·s | 0.6849 ± 0.0049 mPa·s | 0.6772 ± 0.0049 mPa·s | 0.67 ± 0.0048 mPa·s | 0.6638 ± 0.0048 mPa·s | 0.6564 ± 0.0048 mPa·s | 0.6488 ± 0.0047 mPa·s | –

CCCN + CCCCO
Conditions | viscosity [mPa·s]
298.15 K, 100 kPa, x2 = 0.0488 | 0.3946 ± 0.0045
298.15 K, 100 kPa, x2 = 0.0977 | 0.4367 ± 0.005
298.15 K, 100 kPa, x2 = 0.2026 | 0.552 ± 0.0063
298.15 K, 100 kPa, x2 = 0.2966 | 0.6772 ± 0.0076
298.15 K, 100 kPa, x2 = 0.4 | 0.8384 ± 0.0094
298.15 K, 100 kPa, x2 = 0.4939 | 1.003 ± 0.011
298.15 K, 100 kPa, x2 = 0.58 | 1.166 ± 0.013
298.15 K, 100 kPa, x2 = 0.645 | 1.305 ± 0.015
298.15 K, 100 kPa, x2 = 0.7024 | 1.45 ± 0.016
298.15 K, 100 kPa, x2 = 0.7958 | 1.721 ± 0.019
298.15 K, 100 kPa, x2 = 0.9025 | 2.113 ± 0.024
303.15 K, 101 kPa, x1 = 0.01186 | 2.214 ± 0.015
303.15 K, 101 kPa, x1 = 0.02208 | 2.185 ± 0.014
303.15 K, 101 kPa, x1 = 0.03071 | 2.16 ± 0.014
303.15 K, 101 kPa, x1 = 0.04153 | 2.133 ± 0.014
303.15 K, 101 kPa, x1 = 0.04894 | 2.113 ± 0.014
303.15 K, 101 kPa, x1 = 0.06228 | 2.083 ± 0.014
303.15 K, 101 kPa, x1 = 0.07291 | 2.053 ± 0.014
303.15 K, 101 kPa, x1 = 0.07608 | 2.038 ± 0.013
303.15 K, 101 kPa, x1 = 0.08641 | 2.013 ± 0.013
303.15 K, 101.33 kPa, x1 = 0.0967 | 2.02 ± 0.013
303.15 K, 101.33 kPa, x1 = 0.186 | 1.771 ± 0.011
303.15 K, 101.33 kPa, x1 = 0.2863 | 1.501 ± 0.0094
303.15 K, 101.33 kPa, x1 = 0.4131 | 1.177 ± 0.0075
303.15 K, 101.33 kPa, x1 = 0.514 | 0.9669 ± 0.0062
303.15 K, 101.33 kPa, x1 = 0.6196 | 0.7833 ± 0.0051
303.15 K, 101.33 kPa, x1 = 0.7178 | 0.6396 ± 0.0044
303.15 K, 101.33 kPa, x1 = 0.8121 | 0.5233 ± 0.0039
303.15 K, 101.33 kPa, x1 = 0.9017 | 0.433 ± 0.0035
313.15 K, 101.33 kPa, x1 = 0.0967 | 1.617 ± 0.01
313.15 K, 101.33 kPa, x1 = 0.186 | 1.427 ± 0.0091
313.15 K, 101.33 kPa, x1 = 0.2863 | 1.218 ± 0.0078
313.15 K, 101.33 kPa, x1 = 0.4131 | 0.9675 ± 0.0063
313.15 K, 101.33 kPa, x1 = 0.514 | 0.7924 ± 0.0052
313.15 K, 101.33 kPa, x1 = 0.6196 | 0.6548 ± 0.0045
313.15 K, 101.33 kPa, x1 = 0.7178 | 0.5412 ± 0.004
313.15 K, 101.33 kPa, x1 = 0.8121 | 0.4506 ± 0.0036
313.15 K, 101.33 kPa, x1 = 0.9017 | 0.3783 ± 0.0033

CCCCOC(C)=O + CCCCCCCCCCCCCCCC
298.15 K, 101.3 kPa
Conditions | viscosity [mPa·s]
x1 = 0.0797 | 2.778 ± 0.025
x1 = 0.127 | 2.606 ± 0.024
x1 = 0.2518 | 2.227 ± 0.02
x1 = 0.3552 | 1.944 ± 0.017
x1 = 0.4446 | 1.716 ± 0.015
x1 = 0.5252 | 1.539 ± 0.013
x1 = 0.5544 | 1.484 ± 0.013
x1 = 0.594 | 1.39 ± 0.012
x1 = 0.7165 | 1.149 ± 0.01
x1 = 0.8169 | 0.9655 ± 0.0086
x1 = 0.8982 | 0.834 ± 0.0075
x1 = 0.952 | 0.7259 ± 0.0066

From the CheMixHub viscosity set
